Source: patent US10792265B2, “Methods of treating or preventing fibrotic lung diseases” (YALE UNIVERSITY, priority 2014, dated 2020)
“Also recorded” adds a separate entry of the source.

Tests used:
[1] = tested on: bleomycin-induced fibrosis in mice; assay: Bleomycin-induced lung fibrosis model in mice (hydroxyproline, collagen, qRT-PCR of fibrotic genes, Masson trichrome); assay type: in vivo
[2] = T3 and TSH level in the sera of treated bleomycin mice (ELISA); assay type: in vivo
[3] = tested on: bleomycin-induced mortality; assay: Bleomycin-induced mortality by Kaplan-Meier survival curve analysis; assay type: in vivo, mice; conditions: bleomycin 4.5 U/kg intratracheally day 0; T3 40 μg/kg nebulized and inhaled every other day since day 7 (FIG. 5F)
Experimental: 40 μg/kg of T3 was nebulized and inhaled day 10, 12, 14, 16 after bleomycin treatment at dose of 1.5 U/kg, Saline as control. Mice were sacrificed at day 21. […] FIG. 5B: Col1a1 mRNA expression was detected by QRT-PCR (n=8 in each group). FIG. 5C: Col3a1 mRNA expression was detected by QRT-PCR. […] FIG. 5F: Bleomycin-induced mortality by Kaplan-Meier survival curve analysis. 4.5 U/kg of bleomycin was delivered intratracheally at day 0, 40 μg/kg of T3 was nebulized and inhaled every other day since day 7, saline treatment as control group.

[4] = tested on: alveolar epithelial cells isolated from bleomycin injured lungs; assay: Gene expression analysis in alveolar epithelial cells isolated from bleomycin injured lungs before and after T3 aerosolized delivery; assay type: in vivo
Excerpt: Experiments were run to delineate a potential mechanistic pathway through which thyroid hormones exert their protective role in the development and progression of experimental lung fibrosis. […] Similar experiments were run in A549 lung adenocarcinoma cell lines before and after thyroid hormone administration.

[5] = treatment injected at day 3 after bleomycin, sacrificed day 14 (FIG. 4A)
[6] = treatment injected at day 7 after bleomycin, sacrificed day 14 (FIG. 4C)

Structure (SMILES) | Bleomycin-induced lung fibrosis (overall severity) ([1]; bleomycin 1.5 U/Kg intratracheally, PTU 100 mg/kg intraperitoneally at day 3 and day 7, sacrificed day 14) | Hydroxyproline content in the right lungs ([1]; bleomycin 1.5 U/Kg, PTU 100 mg/kg intraperitoneally day 3 and day 7, day 14 (FIG. 3A)) | Collagen content in the right lungs ([1]; bleomycin 1.5 U/Kg, PTU 100 mg/kg intraperitoneally day 3 and day 7, day 14 (FIG. 3B)) | Hydroxyproline measurements [1, 5] | Hydroxyproline measurements [1, 6] | Bleomycin-induced fibrosis (overall) ([1]; T3 40 μg/kg nebulized and inhaled day 10, 12, 14, 16 after bleomycin 1.5 U/kg, sacrificed day 21) | Hydroxyproline content ([1]; T3 inhalation 40 μg/kg day 10, 12, 14, 16 after bleomycin 1.5 U/kg, day 21 (FIG. 5A)) | T3 level in the sera by ELISA ([2]; after T3 inhalation 40 μg/kg in bleomycin mice, n=10 (FIG. 5D)) | Survival / bleomycin-induced mortality (Kaplan-Meier) [3] | Gene expression in alveolar epithelial cells [4] | Pulmonary fibrosis / fibrotic process (fibrotic markers and structural changes) ([1]; T4 after bleomycin instillation, intraperitoneal, 40 mg/kg or 50 mg/kg, sacrificed day 14) | Gene expressions of Col1a1, Col3a1, S100a4 and Acta2 (QRT-PCR) ([1]; T4 injected at day 3 after bleomycin, n=8, p<0.05 (FIG. 4B)) | Gene expressions of Col1a1, Col3a1, S100a4 and Acta2 (QRT-PCR) ([1]; T4 injected at day 7 after bleomycin, n=8, p<0.05 (FIG. 4D)) | Fibrotic and inflammatory response to bleomycin, histological examination by masson trichrome staining ([1]; T4 treatment at either day 3 or day 7 (FIG. 4G)) | Circulating levels of T3 ([2]; after T4 systemic administration in bleomycin mice, n=10, p<0.05 (FIG. 4E))
CCCc1cc(=O)[nH]c(=S)[nH]1 [PTU, propylthiouracil] | more severe bleomycin-induced lung fibrosis; also recorded: aggravates fibrosis | significant elevation | significant elevation | significant increase | significant increase | – | – | – | – | – | – | – | – | – | –
N[C@@H](Cc1cc(I)c(Oc2ccc(O)c(I)c2)c(I)c1)C(=O)O [T3, (S)-2-amino-3-[4-(4-hydroxy-3-iodophenoxy)-3,5-diiodophenyl]propanoic acid] | – | – | – | – | – | blunts bleomycin-induced fibrosis | statistically significant blunting; also recorded: declines hydroxyproline content | does not affect the level of T3 | significant increase in survival; also recorded: reduces mortality | upregulation of several anti-apoptotic genes | – | – | – | – | –
N[C@@H](Cc1cc(I)c(Oc2cc(I)c(O)c(I)c2)c(I)c1)C(=O)O [T4, (S)-2-amino-3-[4-(4-hydroxy-3,5-diiodophenoxy)-3,5-diiodophenyl]propanoic acid] | – | – | – | no statistically significant reduction; also recorded: no statistical difference in the T4 treated group from the saline group | no statistically significant reduction; also recorded: no statistical difference in the T4 treated group from the saline group | – | – | – | – | – | significant attenuation of the fibrotic process; also recorded: attenuates the pulmonary fibrosis | markedly suppresses | significantly suppresses | attenuated | statistically significant increase
